Measurements reported in the supplement of paper PMC10331698.
± gives the standard deviation of the averaged measurements.

Columns and labels:
Test in all cases: level (log10 ratio to DMSO vehicle control); higher = higher biomarker level / cell amount than vehicle control
Conditions in all cases: in DMSO
[1] = compound: O=C(O)CCC(F)(F)C(F)(F)C(F)(F)C(F)(F)C(F)(F)F [2H,2H,3H,3H-Perfluorooctanoic acid]
Protocol: (§1)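 BioMAP Diversity Plus panel of 12 human primary cell co-culture systems (3C, 4H, LPS, SAg, BT, BF4T, BE3C, CASM3C, HDF3CGF, KF3CT, MyoF, Mphg). Compounds were added 1 h before stimulation and left for 24 h (MyoF 48 h; BT 72 h for soluble read-outs or 6 d for IgG). Biomarkers were read by ELISA, cytotoxicity by SRB, PBMC viability and proliferation by Alamar Blue. Each well value was divided by the mean of 8 DMSO control wells on the same plate and log10 transformed; duplicate blinded samples were tested at 4 concentrations.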

Hexafluoroglutaric acid = compound: O=C(O)C(F)(F)C(F)(F)C(F)(F)C(=O)O [Hexafluoroglutaric acid]
Protocol: as §1

Perfluorooctanamide = compound: NC(=O)C(F)(F)C(F)(F)C(F)(F)C(F)(F)C(F)(F)C(F)(F)C(F)(F)F [Perfluorooctanamide]
Protocol: as §1

1H,1H-Heptafluorobutanol = compound: OCC(F)(F)C(F)(F)C(F)(F)F [1H,1H-Heptafluorobutanol]
Protocol: as §1

[2] = compound: CC(C)(C)C(=O)CC(=O)C(F)(F)C(F)(F)C(F)(F)F [(Heptafluorobutanoyl)pivaloylmethane]
Protocol: as §1

[3] = compound: O=C(O)C(F)(F)C(F)(F)C(F)(F)C(F)(F)C(F)(F)C(F)(F)C(F)(F)C(F)(F)Cl [9-Chloro-perfluorononanoic acid]
Protocol: as §1

[4] = compound: C=CC(=O)OCCC(F)(F)C(F)(F)C(F)(F)C(F)(F)F [2-(Perfluorobutyl)ethyl acrylate]
Protocol: as §1

Test System | level (log10) ([1]; 6700 nM) | level (log10) ([1]; 20000 nM) | level (log10) ([1]; 60000 nM) | level (log10) (Hexafluoroglutaric acid; 6700 nM) | level (log10) (Hexafluoroglutaric acid; 20000 nM) | level (log10) (Hexafluoroglutaric acid; 60000 nM) | level (log10) (Perfluorooctanamide; 6700 nM) | level (log10) (Perfluorooctanamide; 20000 nM) | level (log10) (Perfluorooctanamide; 60000 nM) | level (log10) (1H,1H-Heptafluorobutanol; 6700 nM) | level (log10) (1H,1H-Heptafluorobutanol; 20000 nM) | level (log10) (1H,1H-Heptafluorobutanol; 60000 nM) | level (log10) ([2]; 6700 nM) | level (log10) ([2]; 20000 nM) | level (log10) ([2]; 60000 nM) | level (log10) ([3]; 6700 nM) | level (log10) ([3]; 20000 nM) | level (log10) ([4]; 6700 nM) | level (log10) ([4]; 20000 nM) | level (log10) ([4]; 60000 nM)
CASM3C:SRB | -0.0045 ± 0.015 | -0.0105 ± 0.00071 | -0.0105 ± 0.0021 | -0.001 ± 0.0028 | -0.0035 ± 0.0021 | 0.0065 ± 0.005 | 0 ± 0.0071 | -0.002 ± 0.0014 | -0.003 ± 0.0014 | -0.0025 ± 0.0092 | 0.0125 ± 0.0021 | 0.009 ± 0.0028 | 0.01 ± 0.0014 | -0.002 ± 0.0014 | 0.0035 ± 0.00071 | -0.001 ± 0.0028 | 0.0045 ± 0.0078 | 0.0015 ± 0.0021 | 0.0055 ± 0.005 | 0.0005 ± 0.00071
3C:CD141/Thrombomodulin | -0.032 ± 0.078 | -0.0295 ± 0.022 | -0.0405 ± 0.029 | -0.018 ± 0.017 | -0.014 ± 0.011 | -0.034 ± 0.0099 | -0.006 ± 0.02 | -0.0115 ± 0.022 | -0.0185 ± 0.039 | -0.0025 ± 0.018 | -0.005 ± 0.0042 | 0.0195 ± 0.005 | -0.0095 ± 0.015 | 0.024 ± 0.011 | 0.187 ± 0.014 | -0.017 ± 0.016 | -0.008 ± 0.02 | -0.059 ± 0.027 | -0.0955 ± 0.025 | -0.142 ± 0.027
KF3CT:PAI-I | -0.0015 ± 0.00071 | -0.0065 ± 0.0021 | -0.017 ± 0.0085 | -0.004 ± 0.0042 | -0.0005 ± 0.005 | 0.0045 ± 0.0092 | -0.004 ± 0.011 | -0.0085 ± 0.011 | 0.0005 ± 0.0064 | 0.0075 ± 0.0021 | -0.0005 ± 0.0035 | -0.0045 ± 0.0021 | -0.0065 ± 0.019 | -0.0025 ± 0.016 | 0.004 ± 0.02 | -0.01 ± 0.0057 | -0.101 ± 0.0078 | -0.017 ± 0.0071 | -0.005 ± 0.023 | -0.008 ± 0.0085
CASM3C:Serum Amyloid A | -0.0045 ± 0.0078 | -0.0195 ± 0.0092 | -0.0495 ± 0.028 | 0.0395 ± 0.049 | 0.027 ± 0.018 | 0.0085 ± 0.019 | -0.034 ± 0.044 | -0.0465 ± 0.069 | -0.062 ± 0.051 | -0.029 ± 0.04 | 0.012 ± 0.035 | 0.018 ± 0.021 | 0.014 ± 0.035 | 0.001 ± 0.064 | -0.009 ± 0.024 | 0.001 ± 0.016 | 0.0285 ± 0.011 | -0.007 | -0.0175 ± 0.016 | -0.0305 ± 0.08
HDF3CGF:CCL2/MCP-1 | 0.0015 ± 0.029 | 0.003 ± 0.0085 | 0.0065 ± 0.0078 | -0.01 ± 0.0028 | -0.0215 ± 0.012 | -0.005 ± 0.0042 | -0.023 ± 0.0057 | -0.0145 ± 0.022 | -0.033 ± 0.0014 | 0.001 ± 0.014 | 0.0225 ± 0.021 | -0.009 ± 0.03 | -0.0285 ± 0.016 | 0.027 | -0.0065 ± 0.025 | 0.0205 ± 0.022 | -0.013 ± 0.021 | -0.032 ± 0.0085 | -0.059 ± 0.025 | -0.117 ± 0.054
CASM3C:CD141/Thrombomodulin | -0.01 ± 0.04 | -0.036 ± 0.052 | -0.014 | -0.008 ± 0.0099 | -0.0175 ± 0.0021 | 0.043 ± 0.065 | -0.0225 ± 0.021 | 0.0155 ± 0.0021 | 0.015 ± 0.0071 | -0.01 ± 0.013 | -0.0065 ± 0.0021 | -0.0145 ± 0.005 | -0.008 ± 0.033 | -0.005 ± 0.018 | -0.038 ± 0.0042 | -0.0175 ± 0.022 | -0.0225 ± 0.025 | 0.006 ± 0.018 | -0.0125 ± 0.0064 | 0.052 ± 0.0014
KF3CT:CD54/ICAM-1 | -0.016 ± 0.0085 | -0.0205 ± 0.018 | -0.0285 ± 0.023 | -0.0045 ± 0.00071 | -0.014 ± 0.0057 | -0.0015 ± 0.044 | 0.0015 ± 0.0078 | 0 ± 0.014 | 0.001 | 0.009 ± 0.0099 | -0.0095 ± 0.0092 | 0.019 ± 0.0014 | -0.0095 ± 0.011 | -0.0265 ± 0.018 | -0.021 ± 0.0042 | -0.0175 ± 0.00071 | -0.039 ± 0.0014 | -0.0085 ± 0.0092 | -0.0245 ± 0.0078 | -0.054 ± 0.0099
lMphg:CD40 | -0.0205 ± 0.039 | -0.0235 ± 0.04 | -0.05 ± 0.041 | -0.0015 ± 0.012 | -0.013 ± 0.0014 | -0.066 ± 0.061 | -0.0285 ± 0.018 | -0.007 ± 0.014 | 0.045 ± 0.0085 | 0.0045 ± 0.025 | -0.0125 ± 0.059 | -0.0105 ± 0.029 | -0.0075 ± 0.0021 | 0.004 ± 0.034 | -0.017 ± 0.0014 | -0.0165 ± 0.0064 | -0.0155 ± 0.005 | -0.002 | -0.0165 ± 0.0064 | -0.0255 ± 0.0064
HDF3CGF:CXCL10/IP-10 | -0.0015 ± 0.0092 | 0.02 ± 0.0014 | -0.0205 ± 0.054 | 0.0035 ± 0.021 | -0.008 ± 0.0071 | -0.011 ± 0.037 | -0.0165 ± 0.019 | 0.003 ± 0.0014 | 0.0305 ± 0.011 | 0.0105 ± 0.04 | -0.006 ± 0.016 | -0.0055 ± 0.011 | -0.0195 ± 0.0078 | -0.0105 ± 0.012 | -0.076 ± 0.023 | -0.06 ± 0.027 | -0.175 ± 0.0021 | -0.0135 ± 0.029 | -0.0985 ± 0.013 | -0.281 ± 0.032
MyoF:Collagen III | -0.021 ± 0.023 | -0.026 ± 0.024 | -0.0115 ± 0.022 | 0.006 ± 0.0042 | 0.0035 ± 0.005 | 0.0055 ± 0.00071 | -0.0005 ± 0.029 | 0.0045 ± 0.033 | 0.002 ± 0.013 | 0.0065 ± 0.0035 | -0.0065 ± 0.005 | -0.0065 ± 0.0064 | -0.0115 ± 0.0021 | -0.002 ± 0.013 | 0.026 ± 0.0028 | -0.033 ± 0.027 | -0.498 ± 0.0085 | -0.009 ± 0.016 | -0.006 ± 0.0028 | -0.0265 ± 0.013
HDF3CGF:MMP-1 | -0.009 ± 0.023 | -0.0385 ± 0.05 | -0.0675 ± 0.076 | 0.0195 ± 0.0092 | 0.002 ± 0.02 | -0.0045 ± 0.021 | 0.0175 ± 0.00071 | 0.003 ± 0.0071 | -0.0025 ± 0.028 | 0.0025 ± 0.018 | -0.0035 ± 0.0021 | -0.016 ± 0.059 | 0.006 ± 0.0071 | -0.002 ± 0.0014 | 0.01 ± 0.024 | -0.0875 ± 0.005 | -0.118 ± 0.011 | 0.0135 ± 0.0064 | 0.0905 ± 0.022 | 0.133 ± 0.022
lMphg:SRB | -0.0025 ± 0.0035 | 0.001 ± 0.0014 | 0.007 ± 0.0085 | 0.0035 ± 0.00071 | 0.003 ± 0.0085 | -0.0045 ± 0.0035 | -0.0015 ± 0.016 | -0.0145 ± 0.0021 | -0.0075 ± 0.011 | -0.0045 ± 0.0064 | -0.002 ± 0.018 | -0.005 ± 0.0014 | -0.001 ± 0.0057 | -0.006 ± 0.0028 | 0.008 ± 0.016 | 0.0105 ± 0.0092 | 0.013 ± 0.0042 | 0.0085 ± 0.0078 | -0.0095 ± 0.0064 | -0.0155 ± 0.012
HDF3CGF:Proliferation 72hr | -0.002 ± 0.054 | 0.007 ± 0.033 | 0.023 ± 0.018 | -0.011 ± 0.059 | -0.013 ± 0.028 | -0.008 ± 0.05 | 0.0335 ± 0.049 | 0.004 ± 0.023 | -0.0165 ± 0.022 | -0.011 ± 0.023 | 0.0255 ± 0.032 | -0.029 ± 0.013 | -0.0465 ± 0.028 | 0.097 ± 0.031 | 0.094 ± 0.014 | 0.101 ± 0.022 | -0.081 ± 0.054 | -0.0325 ± 0.0092 | -0.124 ± 0.054 | -0.197 ± 0.041
lMphg:CD106/VCAM-1 | -0.0135 ± 0.0092 | -0.022 ± 0.023 | -0.011 ± 0.021 | 0.0045 ± 0.011 | -0.005 ± 0.0057 | -0.0255 ± 0.00071 | -0.021 ± 0.0071 | 0.006 ± 0.0071 | 0.0435 ± 0.012 | -0.001 | 0.008 ± 0.0028 | 0.01 ± 0.0085 | 0.0115 ± 0.037 | 0.001 ± 0.014 | -0.009 ± 0.0057 | -0.011 ± 0.0099 | -0.016 ± 0.0071 | -0.009 ± 0.0099 | -0.0035 ± 0.028 | -0.0405 ± 0.037
KF3CT:MMP-9 | -0.0235 ± 0.021 | -0.018 ± 0.02 | 0.026 ± 0.0057 | -0.001 ± 0.023 | 0.015 ± 0.021 | 0.005 ± 0.0099 | -0.011 ± 0.017 | -0.0265 ± 0.0092 | -0.0905 ± 0.0021 | -0.013 ± 0.0071 | -0.0065 ± 0.005 | -0.01 ± 0.0028 | -0.018 ± 0.0099 | -0.0175 ± 0.023 | -0.014 ± 0.041 | -0.0345 ± 0.0021 | -0.106 ± 0.0071 | -0.01 ± 0.02 | -0.0045 ± 0.012 | -0.022 ± 0.013
